# Assays:
# ABL1 = molecular target: T1, ABL1 (Homo sapiens, UniProt P00519); test: Kinase HotSpot 40-kinase panel; format: biochemical; conditions: single-dose concentration of 1 μM
# T1 construct: purchased Reaction Biology Corp. (Kinase HotSpot)
# Protocol: (§1) Reaction Biology Corp. Kinase HotSpot^SM service [http://www.reactionbiology.com] was utilised for screening of the target compounds as per the protocol reported in the literature.
# (§2) Compound 1r was tested against a panel of 40 kinases including FMS. […] Its inhibition percentages against FLT3 (D835Y) and c-MET kinases were 42% and 40%, respectively. So its IC50 values against both of them will be in micromolar scale. […] The inhibition percentages exerted by compound 1r against the other 37 tested kinases were less than 28%.
# ALK = molecular target: T2, ALK (Homo sapiens, UniProt Q9UM73); test: Kinase HotSpot 40-kinase panel; format: biochemical; conditions: single-dose concentration of 1 μM
# T2 construct: purchased Reaction Biology Corp. (Kinase HotSpot)
# Protocol: as §1, §2
# BTK = molecular target: T3, BTK (Homo sapiens, UniProt Q06187); test: Kinase HotSpot 40-kinase panel; format: biochemical; conditions: single-dose concentration of 1 μM
# T3 construct: purchased Reaction Biology Corp. (Kinase HotSpot)
# Protocol: as §1, §2
# CHK1 = molecular target: T4, CHK1 (Homo sapiens, UniProt O14757); test: Kinase HotSpot 40-kinase panel; format: biochemical; conditions: single-dose concentration of 1 μM
# T4 construct: purchased Reaction Biology Corp. (Kinase HotSpot)
# Protocol: as §1, §2
# CaMKI = molecular target: T5, CaMKI (Homo sapiens, UniProt Q14012); test: Kinase HotSpot 40-kinase panel; format: biochemical; conditions: single-dose concentration of 1 μM
# T5 construct: purchased Reaction Biology Corp. (Kinase HotSpot)
# Protocol: as §1, §2
# DMPK = molecular target: T6, DMPK (Homo sapiens, UniProt Q09013); test: Kinase HotSpot 40-kinase panel; format: biochemical; conditions: single-dose concentration of 1 μM
# T6 construct: purchased Reaction Biology Corp. (Kinase HotSpot)
# Protocol: as §1, §2
# EGFR (T790M) = molecular target: T7, EGFR (T790M) (Homo sapiens, UniProt P00533, T790M); test: Kinase HotSpot 40-kinase panel; format: biochemical; conditions: single-dose concentration of 1 μM
# T7 construct: purchased Reaction Biology Corp. (Kinase HotSpot)
# Protocol: as §1, §2
# EPHA1 = molecular target: T8, EPHA1 (Homo sapiens, UniProt P21709); test: Kinase HotSpot 40-kinase panel; format: biochemical; conditions: single-dose concentration of 1 μM
# T8 construct: purchased Reaction Biology Corp. (Kinase HotSpot)
# Protocol: as §1, §2
# FYN = molecular target: T9, FYN (Homo sapiens, UniProt P06241); test: Kinase HotSpot 40-kinase panel; format: biochemical; conditions: single-dose concentration of 1 μM
# T9 construct: purchased Reaction Biology Corp. (Kinase HotSpot)
# Protocol: as §1, §2
# GSK3β = molecular target: T10, GSK3β (Homo sapiens, UniProt P49841); test: Kinase HotSpot 40-kinase panel; format: biochemical; conditions: single-dose concentration of 1 μM
# T10 construct: purchased Reaction Biology Corp. (Kinase HotSpot)
# Protocol: as §1, §2
# LCK = molecular target: T11, LCK (Homo sapiens, UniProt P06239); test: Kinase HotSpot 40-kinase panel; format: biochemical; conditions: single-dose concentration of 1 μM
# T11 construct: purchased Reaction Biology Corp. (Kinase HotSpot)
# Protocol: as §1, §2
# MEK1 = molecular target: T12, MEK1 (Homo sapiens, UniProt Q02750); test: Kinase HotSpot 40-kinase panel; format: biochemical; conditions: single-dose concentration of 1 μM
# T12 construct: purchased Reaction Biology Corp. (Kinase HotSpot)
# T12 sequence (Q02750 whole entry): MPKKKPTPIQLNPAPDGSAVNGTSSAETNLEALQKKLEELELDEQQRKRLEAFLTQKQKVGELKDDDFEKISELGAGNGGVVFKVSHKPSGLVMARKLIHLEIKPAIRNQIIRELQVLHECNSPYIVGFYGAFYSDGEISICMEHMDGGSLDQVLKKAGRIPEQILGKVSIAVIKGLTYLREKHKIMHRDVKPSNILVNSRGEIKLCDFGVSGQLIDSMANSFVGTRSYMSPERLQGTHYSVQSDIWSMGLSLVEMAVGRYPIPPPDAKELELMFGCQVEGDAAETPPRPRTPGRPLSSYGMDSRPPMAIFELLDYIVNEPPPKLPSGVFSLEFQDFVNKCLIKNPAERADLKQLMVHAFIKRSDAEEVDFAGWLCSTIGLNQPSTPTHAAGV
# Protocol: as §1, §2
# MLK1 = molecular target: T13, MLK1 (Homo sapiens, UniProt P80192); test: Kinase HotSpot 40-kinase panel; format: biochemical; conditions: single-dose concentration of 1 μM
# T13 construct: purchased Reaction Biology Corp. (Kinase HotSpot)
# T13 sequence (P80192 whole entry): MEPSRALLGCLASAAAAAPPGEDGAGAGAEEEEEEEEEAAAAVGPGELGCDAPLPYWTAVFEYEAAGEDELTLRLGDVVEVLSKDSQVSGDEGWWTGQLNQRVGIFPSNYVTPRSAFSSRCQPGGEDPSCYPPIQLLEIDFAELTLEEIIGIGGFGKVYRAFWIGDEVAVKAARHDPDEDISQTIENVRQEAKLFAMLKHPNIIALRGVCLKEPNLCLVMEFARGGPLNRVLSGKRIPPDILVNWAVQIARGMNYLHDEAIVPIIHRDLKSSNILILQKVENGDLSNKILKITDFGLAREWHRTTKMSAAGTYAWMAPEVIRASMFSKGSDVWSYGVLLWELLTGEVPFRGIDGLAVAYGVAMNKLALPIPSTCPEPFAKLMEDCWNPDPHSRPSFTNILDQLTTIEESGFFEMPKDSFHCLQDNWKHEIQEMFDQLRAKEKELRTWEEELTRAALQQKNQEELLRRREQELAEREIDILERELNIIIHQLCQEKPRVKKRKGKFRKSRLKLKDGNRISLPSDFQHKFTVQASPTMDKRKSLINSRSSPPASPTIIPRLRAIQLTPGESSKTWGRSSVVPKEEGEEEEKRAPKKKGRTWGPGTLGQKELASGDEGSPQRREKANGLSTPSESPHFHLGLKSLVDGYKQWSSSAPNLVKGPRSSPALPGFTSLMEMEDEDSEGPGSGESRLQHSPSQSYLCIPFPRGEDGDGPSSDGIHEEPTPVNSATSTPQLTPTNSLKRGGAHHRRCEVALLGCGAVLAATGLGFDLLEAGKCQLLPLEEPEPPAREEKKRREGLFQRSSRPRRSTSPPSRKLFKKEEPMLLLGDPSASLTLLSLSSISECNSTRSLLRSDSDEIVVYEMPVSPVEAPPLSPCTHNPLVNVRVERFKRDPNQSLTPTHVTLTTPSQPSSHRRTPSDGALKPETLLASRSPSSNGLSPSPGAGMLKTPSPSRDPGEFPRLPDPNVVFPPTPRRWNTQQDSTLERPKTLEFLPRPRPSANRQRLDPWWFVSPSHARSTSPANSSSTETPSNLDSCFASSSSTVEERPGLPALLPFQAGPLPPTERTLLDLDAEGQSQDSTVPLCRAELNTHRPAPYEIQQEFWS
# Protocol: as §1, §2
# P70S6K = molecular target: T14, P70S6K (Homo sapiens, UniProt P23443); test: Kinase HotSpot 40-kinase panel; format: biochemical; conditions: single-dose concentration of 1 μM
# T14 construct: purchased Reaction Biology Corp. (Kinase HotSpot)
# T14 sequence (P23443 whole entry): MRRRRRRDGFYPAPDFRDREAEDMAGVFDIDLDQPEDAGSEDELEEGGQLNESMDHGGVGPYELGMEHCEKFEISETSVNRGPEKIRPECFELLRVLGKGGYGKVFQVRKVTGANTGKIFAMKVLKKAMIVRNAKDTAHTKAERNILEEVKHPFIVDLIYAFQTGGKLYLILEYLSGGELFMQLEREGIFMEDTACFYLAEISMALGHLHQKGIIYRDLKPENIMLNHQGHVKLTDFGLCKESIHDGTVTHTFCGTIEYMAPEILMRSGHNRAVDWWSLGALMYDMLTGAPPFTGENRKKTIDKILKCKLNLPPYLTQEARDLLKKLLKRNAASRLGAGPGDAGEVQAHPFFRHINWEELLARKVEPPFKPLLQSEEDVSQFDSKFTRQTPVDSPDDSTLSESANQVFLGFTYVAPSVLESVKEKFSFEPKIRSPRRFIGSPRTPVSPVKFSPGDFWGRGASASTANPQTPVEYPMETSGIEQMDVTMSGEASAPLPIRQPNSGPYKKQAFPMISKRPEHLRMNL
# Protocol: as §1, §2
# PDK1 = molecular target: T15, PDK1 (Homo sapiens, UniProt O15530); test: Kinase HotSpot 40-kinase panel; format: biochemical; conditions: single-dose concentration of 1 μM
# T15 construct: purchased Reaction Biology Corp. (Kinase HotSpot)
# Protocol: as §1, §2
# PIM1 = molecular target: T16, PIM1 (Homo sapiens, UniProt P11309); test: Kinase HotSpot 40-kinase panel; format: biochemical; conditions: single-dose concentration of 1 μM
# T16 construct: purchased Reaction Biology Corp. (Kinase HotSpot)
# T16 sequence (P11309 whole entry): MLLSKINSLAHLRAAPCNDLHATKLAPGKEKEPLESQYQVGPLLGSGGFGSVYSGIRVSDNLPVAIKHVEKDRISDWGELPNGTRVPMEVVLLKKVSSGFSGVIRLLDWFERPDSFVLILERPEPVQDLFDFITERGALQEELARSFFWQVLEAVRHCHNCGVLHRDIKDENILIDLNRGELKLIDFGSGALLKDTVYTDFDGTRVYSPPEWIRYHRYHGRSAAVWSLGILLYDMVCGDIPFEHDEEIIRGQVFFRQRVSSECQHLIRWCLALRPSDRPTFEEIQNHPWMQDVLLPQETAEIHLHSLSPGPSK
# Protocol: as §1, §2
# PLK1 = molecular target: T17, PLK1 (Homo sapiens, UniProt P53350); test: Kinase HotSpot 40-kinase panel; format: biochemical; conditions: single-dose concentration of 1 μM
# T17 construct: purchased Reaction Biology Corp. (Kinase HotSpot)
# Protocol: as §1, §2
# ROCK1 = molecular target: T18, ROCK1 (Homo sapiens, UniProt Q13464); test: Kinase HotSpot 40-kinase panel; format: biochemical; conditions: single-dose concentration of 1 μM
# T18 construct: purchased Reaction Biology Corp. (Kinase HotSpot)
# Protocol: as §1, §2
# ROS/ROS1 = molecular target: T19, ROS/ROS1 (Homo sapiens, UniProt P08922); test: Kinase HotSpot 40-kinase panel; format: biochemical; conditions: single-dose concentration of 1 μM
# T19 construct: purchased Reaction Biology Corp. (Kinase HotSpot)
# T19 sequence (P08922 28-2347): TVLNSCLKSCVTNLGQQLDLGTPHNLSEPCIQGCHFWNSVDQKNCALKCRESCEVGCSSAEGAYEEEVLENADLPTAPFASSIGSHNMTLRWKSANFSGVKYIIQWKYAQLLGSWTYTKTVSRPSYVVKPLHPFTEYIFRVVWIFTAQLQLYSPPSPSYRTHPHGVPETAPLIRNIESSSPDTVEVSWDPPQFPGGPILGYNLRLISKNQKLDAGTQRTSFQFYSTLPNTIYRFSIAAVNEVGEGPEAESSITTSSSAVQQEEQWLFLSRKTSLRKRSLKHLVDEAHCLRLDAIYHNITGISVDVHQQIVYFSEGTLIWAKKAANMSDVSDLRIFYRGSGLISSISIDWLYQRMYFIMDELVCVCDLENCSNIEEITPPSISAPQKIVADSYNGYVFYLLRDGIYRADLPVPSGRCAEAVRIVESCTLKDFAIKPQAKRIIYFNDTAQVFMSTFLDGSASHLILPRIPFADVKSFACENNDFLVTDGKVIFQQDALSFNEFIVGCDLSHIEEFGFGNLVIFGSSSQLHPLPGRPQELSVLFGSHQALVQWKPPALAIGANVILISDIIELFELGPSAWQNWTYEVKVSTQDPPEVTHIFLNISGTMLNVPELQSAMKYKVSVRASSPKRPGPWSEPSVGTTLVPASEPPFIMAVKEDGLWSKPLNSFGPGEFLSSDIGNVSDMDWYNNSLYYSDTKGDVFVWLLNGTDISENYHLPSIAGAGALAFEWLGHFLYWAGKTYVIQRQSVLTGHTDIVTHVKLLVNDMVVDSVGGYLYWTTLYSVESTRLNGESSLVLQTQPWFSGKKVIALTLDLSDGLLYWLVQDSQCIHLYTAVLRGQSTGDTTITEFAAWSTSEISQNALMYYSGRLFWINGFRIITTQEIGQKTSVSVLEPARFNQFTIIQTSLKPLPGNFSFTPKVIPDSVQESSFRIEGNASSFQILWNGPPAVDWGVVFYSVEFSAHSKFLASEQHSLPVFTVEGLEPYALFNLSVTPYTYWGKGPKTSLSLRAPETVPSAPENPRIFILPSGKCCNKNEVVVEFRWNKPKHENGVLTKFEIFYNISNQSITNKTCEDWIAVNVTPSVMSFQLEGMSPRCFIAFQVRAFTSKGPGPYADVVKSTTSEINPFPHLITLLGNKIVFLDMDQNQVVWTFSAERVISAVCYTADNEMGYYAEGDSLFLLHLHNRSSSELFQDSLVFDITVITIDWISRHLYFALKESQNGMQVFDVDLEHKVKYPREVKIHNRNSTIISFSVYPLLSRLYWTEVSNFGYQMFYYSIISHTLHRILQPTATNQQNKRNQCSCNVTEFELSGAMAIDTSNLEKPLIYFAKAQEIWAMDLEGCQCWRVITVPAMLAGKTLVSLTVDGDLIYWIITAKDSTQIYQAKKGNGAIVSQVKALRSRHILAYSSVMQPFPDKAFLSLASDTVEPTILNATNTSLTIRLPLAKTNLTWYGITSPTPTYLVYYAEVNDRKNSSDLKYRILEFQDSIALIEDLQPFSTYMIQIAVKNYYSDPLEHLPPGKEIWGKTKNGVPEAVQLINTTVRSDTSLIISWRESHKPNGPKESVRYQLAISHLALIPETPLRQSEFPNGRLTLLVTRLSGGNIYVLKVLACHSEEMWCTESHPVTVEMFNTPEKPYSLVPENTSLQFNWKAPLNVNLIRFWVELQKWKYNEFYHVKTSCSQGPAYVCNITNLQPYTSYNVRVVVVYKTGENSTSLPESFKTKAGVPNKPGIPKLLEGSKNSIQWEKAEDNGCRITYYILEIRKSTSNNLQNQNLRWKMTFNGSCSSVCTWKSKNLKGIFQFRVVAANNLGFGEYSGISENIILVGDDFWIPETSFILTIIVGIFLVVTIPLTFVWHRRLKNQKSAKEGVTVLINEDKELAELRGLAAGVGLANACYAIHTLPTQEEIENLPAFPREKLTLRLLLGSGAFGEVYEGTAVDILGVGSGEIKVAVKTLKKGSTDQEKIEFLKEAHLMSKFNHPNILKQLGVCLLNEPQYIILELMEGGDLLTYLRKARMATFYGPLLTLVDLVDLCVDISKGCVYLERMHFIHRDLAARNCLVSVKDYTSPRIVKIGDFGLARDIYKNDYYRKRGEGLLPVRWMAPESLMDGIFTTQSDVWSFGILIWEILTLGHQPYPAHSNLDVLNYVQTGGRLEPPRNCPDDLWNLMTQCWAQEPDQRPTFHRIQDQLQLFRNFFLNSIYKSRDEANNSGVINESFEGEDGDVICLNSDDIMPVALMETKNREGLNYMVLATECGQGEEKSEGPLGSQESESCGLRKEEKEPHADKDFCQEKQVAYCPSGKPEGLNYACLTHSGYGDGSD
# Protocol: as §1, §2
# RSK1 = molecular target: T20, RSK1 (Homo sapiens, UniProt Q15418); test: Kinase HotSpot 40-kinase panel; format: biochemical; conditions: single-dose concentration of 1 μM
# T20 construct: purchased Reaction Biology Corp. (Kinase HotSpot)
# Protocol: as §1, §2
# SAPK2a = molecular target: T21, SAPK2a (Homo sapiens, UniProt Q16539); test: Kinase HotSpot 40-kinase panel; format: biochemical; conditions: single-dose concentration of 1 μM
# T21 construct: purchased Reaction Biology Corp. (Kinase HotSpot)
# T21 sequence (Q16539 whole entry): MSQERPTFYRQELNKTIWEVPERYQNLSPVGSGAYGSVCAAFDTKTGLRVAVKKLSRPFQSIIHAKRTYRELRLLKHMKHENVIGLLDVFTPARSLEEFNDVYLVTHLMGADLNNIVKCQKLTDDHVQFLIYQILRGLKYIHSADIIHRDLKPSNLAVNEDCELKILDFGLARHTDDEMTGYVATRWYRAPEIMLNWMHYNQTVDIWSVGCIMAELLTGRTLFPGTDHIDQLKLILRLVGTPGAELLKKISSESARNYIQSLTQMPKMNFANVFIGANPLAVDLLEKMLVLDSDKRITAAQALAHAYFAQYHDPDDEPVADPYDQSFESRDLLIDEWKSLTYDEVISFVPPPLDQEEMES
# Protocol: as §1, §2
# SYK = molecular target: T22, SYK (Homo sapiens, UniProt P43405); test: Kinase HotSpot 40-kinase panel; format: biochemical; conditions: single-dose concentration of 1 μM
# T22 construct: purchased Reaction Biology Corp. (Kinase HotSpot)
# Protocol: as §1, §2
# TEC (activated) = molecular target: T23, TEC (activated) (Homo sapiens, UniProt P42680); test: Kinase HotSpot 40-kinase panel; format: biochemical; conditions: single-dose concentration of 1 μM
# T23 construct: purchased Reaction Biology Corp. (Kinase HotSpot)
# Protocol: as §1, §2
# c-MET = molecular target: T24, c-MET (Homo sapiens, UniProt P08581); test: Kinase HotSpot 40-kinase panel; format: biochemical; conditions: single-dose concentration of 1 μM
# T24 construct: purchased Reaction Biology Corp. (Kinase HotSpot)
# Protocol: as §1, §2
# [1] = test system: DU-145 prostate cancer cell line; test: NCI antiproliferative screening, 5-dose; format: cell-based
# Protocol: (§3) Compounds 1r and KIST101029 were tested at the National Cancer Institute (NCI, Bethesda, MD) following their standard protocol [https://dtp.cancer.gov/discovery_development/nci-60/methodology.htm].
# (§4) Due to over-expression of FMS kinase in certain types of tumours such as ovarian, prostate, and breast[5–7] cancers, we decided to test the antiproliferative activity of compound 1r against a panel of six ovarian, two prostate, and five breast cancer cell lines. It was also tested against HS 27 fibroblasts in order to investigate the selectivity indexes. The results were compared with those of KIST101029 as a reference standard.
# [2] = test system: HS 578T breast cancer cell line; test: NCI antiproliferative screening, 5-dose; format: cell-based
# Protocol: as §3, §4
# [3] = test system: IGROV1 ovarian cancer cell line; test: NCI antiproliferative screening, 5-dose; format: cell-based
# Protocol: as §3, §4
# [4] = test system: MCF7 breast cancer cell line; test: NCI antiproliferative screening, 5-dose; format: cell-based
# Protocol: as §3, §4
# [5] = test system: MDA-MB-231/ATCC breast cancer cell line; test: NCI antiproliferative screening, 5-dose; format: cell-based
# Protocol: as §3, §4
# [6] = test system: MDA-MB-468 breast cancer cell line; test: NCI antiproliferative screening, 5-dose; format: cell-based
# Protocol: as §3, §4
# [7] = test system: NCI/ADR-RES ovarian cancer cell line; test: NCI antiproliferative screening, 5-dose; format: cell-based
# Protocol: as §3, §4
# [8] = test system: OVCAR-3 ovarian cancer cell line; test: NCI antiproliferative screening, 5-dose; format: cell-based
# Protocol: as §3, §4
# [9] = test system: OVCAR-4 ovarian cancer cell line; test: NCI antiproliferative screening, 5-dose; format: cell-based
# Protocol: as §3, §4
# [10] = test system: OVCAR-5 ovarian cancer cell line; test: NCI antiproliferative screening, 5-dose; format: cell-based
# Protocol: as §3, §4
# [11] = test system: OVCAR-8 ovarian cancer cell line; test: NCI antiproliferative screening, 5-dose; format: cell-based
# Protocol: as §3, §4
# [12] = test system: PC-3 prostate cancer cell line; test: NCI antiproliferative screening, 5-dose; format: cell-based
# Protocol: as §3, §4
# [13] = test system: T-47D breast cancer cell line; test: NCI antiproliferative screening, 5-dose; format: cell-based
# Protocol: as §3, §4
# [14] = concentration producing 50% inhibition, mean of duplicate experiments
# [15] = concentration producing 100% inhibition
structure (smiles),measurement,setting,value
Nc1nccc2c1ccn2-c1cccc(NC(=O)c2ccc(N3CCOCC3)c(C(F)(F)F)c2)c1 [Compound 1r],% Inhibition,ABL1,15%
same,% Inhibition,ALK,0%
same,% Inhibition,BTK,1%
same,% Inhibition,CHK1,−6%
same,% Inhibition,CaMKI,−23%
same,% Inhibition,DMPK,−1%
same,% Inhibition,EGFR (T790M),4%
same,% Inhibition,EPHA1,−10%
same,% Inhibition,FYN,14%
same,% Inhibition,GSK3β,−3%
same,% Inhibition,LCK,−7%
same,% Inhibition,MEK1,−7%
same,% Inhibition,MLK1,−4%
same,% Inhibition,P70S6K,−8%
same,% Inhibition,PDK1,−7%
same,% Inhibition,PIM1,−6%
same,% Inhibition,PLK1,7%
same,% Inhibition,ROCK1,2%
same,% Inhibition,ROS/ROS1,−4%
same,% Inhibition,RSK1,−4%
same,% Inhibition,SAPK2a,−1%
same,% Inhibition,SYK,−5%
same,% Inhibition,TEC (activated),10%
same,% Inhibition,c-MET,40%
same,IC50,[1]; [14],1300 nM
same,TGI,[1]; [15],4670 nM
same,IC50,[2]; [14],340 nM
same,TGI,[2]; [15],2430 nM
same,IC50,[3]; [14],700 nM
same,TGI,[3]; [15],43300 nM
same,IC50,[4]; [14],150 nM
same,TGI,[4]; [15],6860 nM
same,IC50,[5]; [14],840 nM
same,TGI,[5]; [15],2320 nM
same,IC50,[6]; [14],300 nM
same,TGI,[6]; [15],3140 nM
same,IC50,[7]; [14],340 nM
same,TGI,[7]; [15],>50000 nM
same,IC50,[8]; [14],240 nM
same,TGI,[8]; [15],1470 nM
same,IC50,[9]; [14],1080 nM
same,TGI,[9]; [15],26000 nM
same,IC50,[10]; [14],1380 nM
same,TGI,[10]; [15],>50000 nM
same,IC50,[11]; [14],1260 nM
same,TGI,[11]; [15],9960 nM
same,IC50,[12]; [14],380 nM
same,TGI,[12]; [15],10400 nM
same,IC50,[13]; [14],1780 nM
same,TGI,[13]; [15],27500 nM

# Source: article PMC6084503, “Pyrrolo[3,2-c]pyridine derivatives with potential inhibitory effect against FMS kinase: in vitro biological studies” (Journal of Enzyme Inhibition and Medicinal Chemistry, 2018)
